Assay results: ChEMBL document CHEMBL1139447, “Discovery of novel PTP1b inhibitors” (Bioorg Med Chem Lett, 2004)

Assay: Compound was tested for inhibition of Protein tyrosine phosphatase (PTP1B)

Structure (SMILES) | IC50 | Kd
O=Cc1ccccn1 [2-PYRIDINECARBOXALDEHYDE] | > 300 µM | 100 µM
O=c1c(O)c(-c2ccccc2)c1=O | 60 µM | 25 µM
O=CCCc1ccccc1 [DIHYDROCINNAMALDEHYDE] | > 300 µM | 150 µM
